Literature values in US7183293B2, “Ether derivatives useful as inhibitors of PDE4 isozymes” (Pfizer Inc., priority 2001, dated 2007).

Experiments:
human PDE4B2B = human PDE4B2B (Homo sapiens, UniProt Q07343)
[1] = test system: mineralized nodule formation and osteoclast-like cell formation
[2] = test system: lipopolysaccharide-induced bowel erythrocyte extravasation; details: rats; for lipopolysaccharide-induced bowel erythrocyte extravasation: pretreatment i.p. 3×
[3] = test system: lipopolysaccharide-induced mesenteric blood flow fall; details: dogs
bone loss = details: serial oral administrations
PDE4B mutant enzyme = details: alanine for aspartate in the catalytic region
[4] = test system: T-cell mediated hepatic failure
[5] = test system: dextran sulfate induced colitis; details: rat
[6] = test system: experimental allergic encephalomyelitis; details: marmoset
[7] = test system: collagen induced arthritis
bronchodilation = details: in vivo
[8] = test system: mean pulmonary artery pressure; details: oral administration, clinical conditions
psoriatic lesions = details: in vivo
5-lipoxygenase [9] = details: a number of species
[10] = in vivo
canine tracheal PDE4 = details: at 100 nM
[11] = test system: LPS-stimulated ex vivo TNF release and PHA induced lymphocyte proliferation; details: oral dose of 300 mg
[12] = test system: FEV1 and forced vital capacity
[13] = test system: antigen-induced bronchospasm; details: rat
PDE4D = PDE4D (Homo sapiens, UniProt Q08499)
PDE4D, sequence (Q08499 whole entry, species assumed): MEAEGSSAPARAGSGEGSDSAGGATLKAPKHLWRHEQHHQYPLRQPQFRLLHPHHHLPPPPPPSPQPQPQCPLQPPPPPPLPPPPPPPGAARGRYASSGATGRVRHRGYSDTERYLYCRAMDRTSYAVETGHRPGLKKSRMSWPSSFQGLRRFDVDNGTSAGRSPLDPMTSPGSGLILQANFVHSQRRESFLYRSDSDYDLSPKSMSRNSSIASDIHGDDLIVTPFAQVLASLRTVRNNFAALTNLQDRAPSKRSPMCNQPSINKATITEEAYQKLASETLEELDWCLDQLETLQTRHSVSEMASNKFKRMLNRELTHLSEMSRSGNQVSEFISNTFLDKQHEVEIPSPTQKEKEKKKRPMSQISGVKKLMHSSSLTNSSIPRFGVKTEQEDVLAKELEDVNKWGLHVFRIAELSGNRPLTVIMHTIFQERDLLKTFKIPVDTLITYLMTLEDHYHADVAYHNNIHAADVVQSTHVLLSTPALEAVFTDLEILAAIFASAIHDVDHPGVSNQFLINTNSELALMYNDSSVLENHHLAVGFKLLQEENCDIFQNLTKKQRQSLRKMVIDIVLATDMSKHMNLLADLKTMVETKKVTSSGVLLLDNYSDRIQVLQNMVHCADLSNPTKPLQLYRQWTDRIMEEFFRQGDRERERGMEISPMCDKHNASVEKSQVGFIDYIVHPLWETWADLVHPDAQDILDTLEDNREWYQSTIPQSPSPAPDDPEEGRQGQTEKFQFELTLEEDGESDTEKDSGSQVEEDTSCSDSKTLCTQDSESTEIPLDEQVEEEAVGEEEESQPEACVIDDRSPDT

rheumatoid arthritis = test system: rheumatoid arthritis; design: dose or concentration left out as unconfirmed; details: 35 patients
SCW-induced arthritis = details: in vivo
5-lipoxygenase [14] = details: in vivo

human PDE4B2B, sequence (Q07343 1-564 isoform Q07343-2): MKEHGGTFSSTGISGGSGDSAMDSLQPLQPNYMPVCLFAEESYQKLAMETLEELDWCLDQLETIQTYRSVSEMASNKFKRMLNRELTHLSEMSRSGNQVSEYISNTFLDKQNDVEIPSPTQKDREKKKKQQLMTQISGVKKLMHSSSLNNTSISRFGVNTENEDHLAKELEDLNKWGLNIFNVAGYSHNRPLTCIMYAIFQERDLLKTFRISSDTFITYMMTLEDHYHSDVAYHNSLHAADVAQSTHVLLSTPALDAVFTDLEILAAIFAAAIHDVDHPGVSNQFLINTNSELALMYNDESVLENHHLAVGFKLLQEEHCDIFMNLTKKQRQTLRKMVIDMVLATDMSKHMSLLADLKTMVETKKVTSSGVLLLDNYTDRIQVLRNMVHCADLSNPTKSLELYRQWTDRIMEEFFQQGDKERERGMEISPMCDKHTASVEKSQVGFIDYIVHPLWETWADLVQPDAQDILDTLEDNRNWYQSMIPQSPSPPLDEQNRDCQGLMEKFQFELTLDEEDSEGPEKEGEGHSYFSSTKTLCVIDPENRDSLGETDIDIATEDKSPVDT

Question: Which “affinity to the catalytic and the HARB sites” value (human PDE4B2B) does the source give for `COC(=O)N1C[C@H](c2ccc(OC)c(OC3CCCC3)c2)[C@@](C)(C(C)=O)C1` (racemic) [Formula (0.0.61), (R,R)-(+/−)-methyl-3-acetyl-4-[3-(cyclopentyloxy)-4-methoxyphenyl]-3-methyl-1-pyrrolidine carboxylate] here?
Answer: Its value is “equal affinity”.

Question: What does the source list for `CCCCn1c(=O)c2c(ncn2CC(C)=O)n(CCCC)c1=O` [denbufylline]?
Answer: number of mineralized nodules [1]: increase in the number of mineralized nodules; lipopolysaccharide induced erythrocyte extravasation [2]: attenuated; lipopolysaccharide induced intestinal hypoperfusion [3]: attenuated; bone mineral density of femurs (bone loss): inhibit the decrease in the bone mineral density

Question: With `COc1ccc(C2CNC(=O)C2)cc1OC1CCCC1` (centres unmarked) [rolipram] as the molecule, how does the “relaxant activities of isoproterenol and forskolin” value (pulmonary artery rings) read?
Answer: The value was “potentiates”.

Question: And the “lipopolysaccharide induced erythrocyte extravasation” value [2]?
Answer: The value was “attenuated”.

Question: What about the “lipopolysaccharide-induced bowel erythrocyte extravasation” value [2] of the same molecule?
Answer: The value was “reduces”.

Question: What about the “lipopolysaccharide induced intestinal hypoperfusion” value [3] of the same molecule?
Answer: The value was “attenuated”.

Question: What about the “inhibition of mutant PDE4B” value (PDE4B mutant enzyme) of the same molecule?
Answer: The value was “critical for inhibition”.

Question: What about the “plasma activities of ALT, AST and SDH” value ([4]; 0.1 to 10 mg/kg i.p., mice) of the same molecule?
Answer: The value was “dose-dependently inhibited”.

Question: And the “concanavalin A-induced IL-4 release” value ([4]; mouse, in vivo)?
Answer: Its value is “suppress”.

Question: What about the “effects in dextran sulfate induced colitis (bleeding and inflammatory markers)” value [5] of the same molecule?
Answer: The value was “beneficial effects comparable to prednisolone”.

Question: What about the “clinical signs and MRI abnormalities” value [6] of the same molecule?
Answer: The value was “suppress the appearance of clinical signs”.

Question: And the “stimulation of acid secretion” value (gastric parietal cells)?
Answer: The value was “very potent stimulator”.

Question: What about the “development of the disease” value ([7]; 3 mg/kg twice daily when arthritis was apparent) of the same molecule?
Answer: The value was “progression of severity was halted”.

Question: What about the “TNF-α and IFN-γ mRNA expression in regional lymph nodes” value ([7]; rat, in vivo) of the same molecule?
Answer: The value was “strong down-regulation”.

Question: With `Cc1[nH]c(=O)c(C#N)cc1-c1ccncc1` [milrinone] as the molecule, how does the “relaxant activities of isoproterenol and forskolin” value (pulmonary artery rings) read?
Answer: Its value is “same effect”.

Question: And the adverse events (bronchodilation)?
Answer: Its adverse events is “tachycardia and hypotension”.

Question: And the bronchodilation (bronchodilation)?
Answer: Its bronchodilation is “short-lived bronchodilation”.

Question: And the “protection against induced bronchoconstriction” value (bronchodilation)?
Answer: Its value is “slight degree of protection”.

Question: And the “mean pulmonary artery pressure” value [8]?
Answer: Its value is “decreases”.

Question: Which “adverse systemic or cutaneous effects” value (psoriatic lesions) does the source give for `CCCCOc1cc(CC2CNC(=O)N2)ccc1OC` (centres unmarked) [Ro 20-1724] here?
Answer: Its value is “without adverse systemic or cutaneous effects”.

Question: With `COC1(c2cc(F)cc(OCc3ccc4c(ccc(=O)n4C)c3)c2)CCOCC1` [ZD-2138] as the molecule, how does the oral activity (5-lipoxygenase [9]) read?
Answer: Its oral activity is “highly active orally”.

Question: Which “effects in dextran sulfate induced colitis (bleeding and inflammatory markers)” value [5] does the source give for `CCCn1c(=O)c2[nH]cnc2n(-c2ccc(Cl)cc2)c1=O` [LAS31025] here?
Answer: Its value is “beneficial effects comparable to prednisolone”.

Question: With `COc1ccc(C(=O)Nc2c(Cl)cncc2Cl)cc1OC1CCCC1` [RP-73,401] as the molecule, how does the “emesis / nausea and vomiting” value [10] read?
Answer: Its value is “elicit emesis”.

Question: And the “inhibition of mutant PDE4B” value (PDE4B mutant enzyme)?
Answer: The value was “lose potency”.

Question: Which rhinorrhea (rhinorrhea; antigen-challenged pig) does the source give for `CCCn1c(=O)c2c(C)nc(CC)n2c2nc(OC)ccc21` [Example D-22888] here?
Answer: The rhinorrhea was “inhibit rhinorrhea”.

Question: What about the anti-allergic effect (rhinorrhea; pig, in vivo) of the same molecule?
Answer: The anti-allergic effect was “strong anti-allergic affect”.

Question: For `COc1cc2c(cc1OC)[C@@H]1CN(C)CC[C@@H]1N=C2c1ccc(NC(C)=O)cc1` [benafentrine], which bronchodilation (bronchodilation) is on record?
Answer: The bronchodilation was “bronchodilation only when administered by inhalation”.

Question: For `COc1ccc(C(=O)Cc2c(Cl)cncc2Cl)c2c1OCCCCO2` [Formula (0.0.49)], which “inhibition of canine tracheal PDE4” value (canine tracheal PDE4) is on record?
Answer: Its value is “almost complete inhibition”.

Question: For `CCNc1ncn(Cc2ccc(OC)c(OC3CCCC3)c2)c2nc(C(C)C)nc1-2` [Example V-11294A], which “reducing TNF levels and lymphocyte proliferation” value [11] is on record?
Answer: Its value is “effective”.

Question: Which “FEV and forced vital capacity (FVC)” value ([12]; 15 mg twice a day for six weeks) does the source give for `COc1ccc([C@]2(C#N)CC[C@@H](C(=O)O)CC2)cc1OC1CCCC1` [SB-207,499] here?
Answer: The value was “increrases”.

Question: What about the FEV1 ([12]; four week trial, six week study, 15 mg twice a day) of the same molecule?
Answer: Its FEV1 is “improved FEV1”.

Question: With `CSc1ccc(C(=O)c2[nH]c(=O)[nH]c2C)cc1` [enoximone] as the molecule, how does the “mean pulmonary artery pressure” value [8] read?
Answer: The value was “decreases”.

Question: With `Nc1nc2c([nH]1)c(=O)n(CC1CC1)c(=O)n2CC1CC1` [BRL-61,063] as the molecule, how does the “emesis / nausea and vomiting” value [10] read?
Answer: The value was “nausea and vomiting”.

Question: For `COc1ccc(C(=O)Nc2c(C)noc2C)cc1OC1CCCC1` [RPR-132294], which “inhibition of antigen-induced bronchospasm” value [13] is on record?
Answer: Its value is “activity”.

Question: With `COc1ccc(C2CNC(=O)NC2)cc1O[C@H]1C[C@@H]2CC[C@H]1C2` [CP-80,633] as the molecule, how does the “emesis / nausea and vomiting” value [10] read?
Answer: Its value is “elicit emesis”.

Question: Which “potency against PDE4 subtypes” value (PDE4D) does the source give for `O=c1c2cccnc2n(-c2cccc([N+](=O)[O-])c2)c(=O)n1Cc1ccncc1` [RS-25,344] here?
Answer: The value was “more potent against PDE4D”.

Question: Which “lipopolysaccharide-induced bowel erythrocyte extravasation” value [2] does the source give for `CC(=O)CCCCn1c(=O)c2c(ncn2C)n(C)c1=O` [pentoxifylline] here?
Answer: Its value is “reduces”.

Question: Which “emesis / nausea and vomiting” value [10] does the source give for `O=c1c2cccnc2n(-c2cccc([N+](=O)[O-])c2)c(=O)n1Cc1ccncc1` [RS-23,544] here?
Answer: Its value is “elicit emesis”.

Question: For `COc1ccc(CC2CNC(=O)N2)cc1OC1CCCC1` (centres unmarked) [Ro-20-1724], which “inhibition of mutant PDE4B” value (PDE4B mutant enzyme) is on record?
Answer: Its value is “lose potency”.

Question: For `COc1ccc(C(=O)Nc2c(Cl)cncc2Cl)cc1OC1CCCC1` [RP73401], which “clinical improvement, C-reactive protein and IL-6 serum levels” value (rheumatoid arthritis) is on record?
Answer: The value was “positive trend towards clinical improvement”.

Question: What about the “amelioration of disease (joint destruction, synovitis, fibrosis)” value (SCW-induced arthritis) of the same molecule?
Answer: Its value is “significant amelioration of disease”.

Question: With `Clc1nc2c(N3CCCC3)nc(N3CCNCC3)nc2nc1NCc1ccccc1` [Formula (0.0.55)] as the molecule, how does the “inhibition of the growth of tumor cells” value (tumor cells) read?
Answer: Its value is “micromolar concentrations”.

Question: For `CCCCn1c(=O)c2c(ncn2CC(C)=O)n(CCCC)c1=O` [debufylline], which “lipopolysaccharide-induced bowel erythrocyte extravasation” value [2] is on record?
Answer: Its value is “reduces”.

Question: With `C[C@H](C#Cc1ccc(Oc2ccc(F)cc2)o1)N(O)C(N)=O` [Abbott-79175] as the molecule, how does the duration of action (5-lipoxygenase [14]) read?
Answer: Its duration of action is “longer duration of action than zileuton”.
